System: IFNα-induced pSTAT5 (pY694) in CD3 positive cells of human whole blood
Experiment: IFNα-Induced STAT Phosphorylation in Human Whole Blood
Assay type: cell-based
Conditions: Homo sapiens, 1 h compound incubation, 1000 U/mL recombinant human IFNα A/D for 15 min, pSTAT5 in CD3 positive population, read-out: Human WB IFNα-Induced Stat Phosph. (IC50)
Method: IFNα-Induced STAT Phosphorylation in Human Whole Blood
After an hour long incubation with compound, human whole blood (drawn with either EDTA or ACD-A as anti-coagulant) was stimulated with 1000 U/mL recombinant human IFNα A/D (R&D Systems 11200-2) for 15 min. The stimulation was stopped by adding Fix/Lyse buffer (BD 558049). Cells were stained with a CD3 FITC antibody (BD 555916), washed, and permeabilized on ice using Perm III buffer (BD 558050). Cells were then stained with an Alexa-Fluor 647 pSTAT5 (pY694) antibody (BD 612599) for 30 min prior to analysis on the FACS Canto II. The amount of pSTAT5 expression was quantitated by median fluorescence intensity after gating on the CD3 positive population.
IFNα-Induced STAT Phosphorylation in Human Whole Blood Inhibition Data ND—no data available

SMILES	IC50 [µM]
CCS(=O)(=O)NCc1nc(-c2cccc(Nc3cc(NC(=O)C4CC4)nnc3C(N)=O)c2OC)no1 [Example 48]	0.025
COc1c(Nc2cc(NC(=O)C3CC3)nnc2C(N)=O)cccc1-c1noc(CNS(=O)(=O)C2CC2)n1 [Example 49]	0.05
COc1c(Nc2cc(NC(=O)C3CC3)nnc2C(N)=O)cccc1-c1noc(CNS(=O)(=O)C(C)C)n1 [Example 50]	0.07
COc1c(Nc2cc(NC(=O)C3CC3)nnc2C(N)=O)cccc1-c1noc([C@H](C)N(C)S(C)(=O)=O)n1 [Example 51]	0.16
COc1c(Nc2cc(NC(=O)C3CC3)nnc2C(N)=O)cccc1-c1noc([C@@H](C)N(C)S(C)(=O)=O)n1 [Example 52]	0.09
COc1c(Nc2cc(NC(=O)C3CC3)nnc2C(N)=O)cccc1-c1noc([C@H]2CCCN2S(C)(=O)=O)n1 [Example 53]	0.21
COc1c(Nc2cc(NC(=O)C3CC3)nnc2C(N)=O)cccc1-c1noc(CN(C)S(=O)(=O)CC(F)(F)F)n1 [Example 55]	0.04
CCC(C(=O)NCCOC)c1nc(-c2cccc(Nc3cc(NC(=O)C4CC4)nnc3C(N)=O)c2OC)no1 (stereo not shown) [Example 56]	0.12
CCS(=O)(=O)N(C)Cc1nc(-c2cccc(Nc3cc(NC(=O)C4CC4)nnc3C(N)=O)c2OC)no1 [Example 57]	0.009
COc1c(Nc2cc(NC(=O)C3CC3)nnc2C(N)=O)cccc1-c1noc(CN(C)S(=O)(=O)C(C)C)n1 [Example 58]	0.011
CCN(Cc1nc(-c2cccc(Nc3cc(NC(=O)C4CC4)nnc3C(N)=O)c2OC)no1)S(C)(=O)=O [Example 59]	0.013
COc1c(Nc2cc(NC(=O)C3CC3)nnc2C(N)=O)cccc1-c1noc(CN(C2CC2)S(C)(=O)=O)n1 [Example 60]	0.023
COc1c(Nc2cc(NC(=O)C3CC3)nnc2C(N)=O)cccc1-c1noc(CN(C(C)C)S(C)(=O)=O)n1 [Example 61]	0.06
COc1c(Nc2cc(NC(=O)C3CC3)nnc2C(N)=O)cccc1-c1noc([C@H]2C[C@@H](O)CN2S(C)(=O)=O)n1 [Example 62]	0.08
COc1c(Nc2cc(NC(=O)C3CC3)nnc2C(N)=O)cccc1-c1noc(CN(C)C)n1 [Example 63]	0.03
COc1c(Nc2cc(NC(=O)C3CC3)nnc2C(N)=O)cccc1-c1noc(CS(C)(=O)=O)n1 [Example 64]	0.11
[2H]C([2H])([2H])NC(=O)c1nnc(NC(=O)C2CC2)cc1Nc1cccc(-c2noc(CN(C)S(C)(=O)=O)n2)c1OC [Example 65]	0.016
COc1c(Nc2cc(NC(=O)C3CC3)nnc2C(N)=O)cccc1-c1noc([C@@H]2[C@H](O)CCN2S(C)(=O)=O)n1 [Example 66]	0.03
COCc1nc(-c2cccc(Nc3cc(NC(=O)C4CC4)nnc3C(N)=O)c2OC)no1 [Example 67]	0.06
COc1c(Nc2cc(NC(=O)C3CC3)nnc2C(N)=O)cccc1-c1noc(CN2CCCS2(=O)=O)n1 [Example 68]	0.023
[2H]C([2H])([2H])NC(=O)c1nnc(NC(=O)C2CC2)cc1Nc1cccc(-c2noc(CO)n2)c1OC [Example 69]	0.03

SMILES	IC50 [µM]
COc1c(Nc2cc(NC(=O)C3CC3)nnc2C(N)=O)cccc1-c1noc(CO)n1 [Example 70]	0.014
COc1c(Nc2cc(NC(=O)C3CC3)nnc2C(N)=O)cccc1-c1noc(CCS(C)(=O)=O)n1 [Example 71]	0.025
[2H]C([2H])([2H])NC(=O)c1nnc(NC(=O)C2CC2)cc1Nc1cccc(-c2noc(COC)n2)c1OC [Example 72]	0.08
[2H]C([2H])([2H])NC(=O)c1nnc(NC(=O)C2CC2)cc1Nc1cccc(-c2noc(C(C)(C)O)n2)c1OC [Example 73]	0.28
[2H]C([2H])([2H])NC(=O)c1nnc(NC(=O)C2CC2)cc1Nc1cccc(-c2noc(C3(O)CC3)n2)c1OC [Example 74]	0.17
[2H]C([2H])([2H])NC(=O)c1nnc(NC(=O)C2CC2)cc1Nc1cccc(-c2noc([C@@H]3C[C@@H](O)CN3S(C)(=O)=O)n2)c1OC [Example 75]	0.03
[2H]C([2H])([2H])NC(=O)c1nnc(NC(=O)C2CC2)cc1Nc1cccc(-c2noc(CN3CCCS3(=O)=O)n2)c1OC [Example 76]	0.03
[2H]C([2H])([2H])NC(=O)c1nnc(NC(=O)C2CC2)cc1Nc1cccc(-c2noc(CN3CCOC3=O)n2)c1OC [Example 77]	0.04
[2H]C([2H])([2H])NC(=O)c1nnc(NC(=O)C2CC2)cc1Nc1cccc(-c2noc(CCS(C)(=O)=O)n2)c1OC [Example 78]	0.07
[2H]C([2H])([2H])NC(=O)c1nnc(NC(=O)C2CC2)cc1Nc1cccc(-c2noc(CN3CCCC3=O)n2)c1OC [Example 79]	0.16
[2H]C([2H])([2H])NC(=O)c1nnc(NC(=O)C2CC2)cc1Nc1cccc(-c2noc(CN3CC(O)C3)n2)c1OC [Example 80]	0.11
[2H]C([2H])([2H])NC(=O)c1nnc(NC(=O)C2CC2)cc1Nc1cccc(-c2noc(C3CCCO3)n2)c1OC (stereo not shown) [Example 81]	0.18
[2H]C([2H])([2H])NC(=O)c1nnc(NC(=O)C2CC2)cc1Nc1cccc(-c2noc(CN3CCC(O)C3)n2)c1OC (stereo not shown) [Example 82]	0.07
[2H]C([2H])([2H])NC(=O)c1nnc(NC(=O)C2CC2)cc1Nc1cccc(-c2noc(CN3CCC(O)CC3)n2)c1OC [Example 83]	0.11
[2H]C([2H])([2H])NC(=O)c1nnc(NC(=O)C2CC2)cc1Nc1cccc(-c2noc([C@H](C)O)n2)c1OC [Example 84]	0.13
[2H]C([2H])([2H])NC(=O)c1nnc(NC(=O)C2CC2)cc1Nc1cccc(-c2noc([C@@H](C)O)n2)c1OC [Example 85]	0.24
[2H]C([2H])([2H])NC(=O)c1cnc(NC(=O)CC2CC2)cc1Nc1cccc(-c2noc(COC)n2)c1OC [Example 86]	0.3
[2H]C([2H])([2H])NC(=O)c1cnc(NC(=O)CC)cc1Nc1cccc(-c2noc(COCC)n2)c1OC [Example 87]	0.46
[2H]C([2H])([2H])NC(=O)c1cnc(NC(=O)CC)cc1Nc1cccc(-c2noc(COC)n2)c1OC [Example 88]	0.23
[2H]C([2H])([2H])NC(=O)c1cnc(NC(=O)C2CC2)cc1Nc1cccc(-c2noc(COC(C)C)n2)c1OC [Example 89]	0.03
[2H]C([2H])([2H])NC(=O)c1cnc(NC(=O)C2CC2)cc1Nc1cccc(-c2noc(CCOC)n2)c1OC [Example 90]	0.06

SMILES	IC50 [µM]
[2H]C([2H])([2H])NC(=O)c1cnc(NC(=O)C2CC2)cc1Nc1cccc(-c2noc(COCC)n2)c1OC [Example 91]	0.05
[2H]C([2H])([2H])NC(=O)c1cnc(NC(=O)C2CC2)cc1Nc1cccc(-c2noc(CN3CCN(C(=O)OC)CC3)n2)c1OC [Example 92]	0.03
[2H]C([2H])([2H])NC(=O)c1cnc(NC(=O)C2CC2)cc1Nc1cccc(-c2noc(COC)n2)c1OC [Example 93]	0.05
[2H]C([2H])([2H])NC(=O)c1cnc(NC(=O)C2CC2)cc1Nc1cccc(-c2noc(CN(C)S(C)(=O)=O)n2)c1OC [Example 94]	0.011
[2H]C([2H])([2H])NC(=O)c1cnc(NC(=O)C2CC2)cc1Nc1cccc(-c2noc(CN3CCN(S(C)(=O)=O)CC3)n2)c1OC [Example 95]	0.021
[2H]C([2H])([2H])NC(=O)c1cnc(NC(=O)C2CC2)cc1Nc1cccc(-c2noc(CN3CCOCC3)n2)c1OC [Example 96]	0.015
[2H]C([2H])([2H])NC(=O)c1cnc(NC(=O)C2CC2)cc1Nc1cccc(-c2noc(CN3CCCS3(=O)=O)n2)c1OC [Example 97]	0.03
[2H]C([2H])([2H])NC(=O)c1cnc(NC(=O)C2CC2)cc1Nc1cccc(-c2noc(CO)n2)c1OC [Example 98]	0.023
[2H]C([2H])([2H])NC(=O)c1cnc(Nc2cc(C)ccn2)cc1Nc1cccc(-c2noc(COC)n2)c1OC [Example 99]	0.04
[2H]C([2H])([2H])NC(=O)c1cnc(Nc2cc(C)ccn2)cc1Nc1cccc(-c2noc(COCC)n2)c1OC [Example 100]	0.06
COC(=O)N1CCN(Cc2nc(-c3cccc(Nc4cc(N)nnc4C(N)=O)c3OC)no2)CC1 [Example 105]	1.83
COc1c(Nc2cc(N)nnc2C(N)=O)cccc1-c1noc(CN2CCOCC2)n1 [Example 107]	0.82
COc1c(Nc2cc(N)nnc2C(N)=O)cccc1-c1noc(CN2CCN(S(C)(=O)=O)CC2)n1 [Example 109]	> 10
COc1c(Nc2cc(N)nnc2C(N)=O)cccc1-c1noc(C(=O)NCCC2CCCN2C)n1 (stereo not shown) [Example 115]	3.49
COc1c(Nc2cc(N)nnc2C(N)=O)cccc1-c1noc(C(=O)NC2CCN(C)CC2)n1 [Example 116]	4.97
COc1c(Nc2cc(NC3CC3)nnc2C(N)=O)cccc1-c1noc(CNS(C)(=O)=O)n1 [Example 118]	3.8
COc1c(Nc2cc(NCC3CC3)nnc2C(N)=O)cccc1-c1noc(CNS(C)(=O)=O)n1 [Example 119]	> 10
[2H]C([2H])([2H])c1c(NC(=O)C2CC2)nnc(C(N)=O)c1Nc1cccc(-c2nc(CN3CCN(C(C)=O)CC3)no2)c1OC [Example 120, 4-((3-(3-((4-acetylpiperazin-1-yl)methyl)-1,2,4-oxadiazol-5-yl)-2-methoxyphenyl)amino)-6-(cyclopropanecarboxamido)-trideuteromethylpyridazine-3-carboxamide]	0.15
[2H]C([2H])([2H])NC(=O)c1nnc(NC(=O)C2CC2)cc1Nc1cccc(-c2nc(CC)no2)c1OC [Example 121]	> 10

Source: patent US12240840B2, “Amide-substituted heterocyclic compounds for the treatment of conditions related to the modulation of IL-12, IL-23 and/or IFN-alpha” (BRISTOL-MYERS SQUIBB COMPANY, priority 2018, dated 2025)
